Reference: patent US11911436B2, “Amphiphilic peptide chaperones and methods of use” (priority 2021, dated 2024)
Read-outs that look alike come from different tables or passages of the source. Marks after values point to notes of the source that are not given here. Square brackets hold non-standard residues; d marks the D form. Peptide text beside a SMILES is read from it. * marks the point of attachment. Myristoyl = CCCCCCCCCCCCCC(=O)*; dNMeL = CN[C@H](CC(C)C)C(=O)O; TMR = tetramethylrhodamine

Experiments:
[1] = system: wild-type C. elegans (N2); test: C. elegans N2 lifespan assay at 20° C. with peptide feeding; type: in vivo; conditions: N2 worms; for Median Lifespan (Days ± SE): 50 μg peptide with E. coli OP50; for Increase in median survival (%): 50 μg peptide, vs control
Procedure: A schematic of an assay of C. elegans N2 lifespan at 20° C. is shown (FIG. 10A). This involved peptide treatment (50 μg) with E. coli OP50 as a food source. Plates were changed every second day with 50 μg fresh peptide and OP50. Scoring of survival was done every day to the last day of survival. 50 mM FUdR was added in experimental plates between D1 and D5 to prevent progeny production.

[2] = system: C. elegans (N2 strain); test: Thermotolerance assay, continuous heat stress at 35° C.; type: in vivo; conditions: N2 worms
Procedure: The lifespan of wild type C. elegans with and without peptide at a restrictive temperature was measured.
A schematic representation of the thermotolerance assay used is shown (FIG. 11A). 24 hours of 50 μg peptide treatment at 20° C. of a synchronized population of wild type C. elegans was followed by a continuous heat stress at 35° C. Worms were scored every two hours for 24 hours for survival.

[3] = system: CL2006 C. elegans; test: CL2006 lifespan at 20° C. (paralysis and death model); type: in vivo; conditions: CL2006 worms, 50 μg peptide
Procedure: CL2006 C. elegans were used as a paralysis and death model. Worms are maintained at 15° C., with adult onset paralysis induced at 20° C.
50 μg CPAMC and CPPRAMC peptide or controls were added to CL2006 worms, and the fraction left alive over time at the restrictive temperature of 20° C. was quantified (FIG. 12). […] (FIG. 12).

[4] = system: CL4176 C. elegans; test: CL4176 Aβ-induced paralysis and survival assay; type: in vivo; conditions: CL4176 worms
Procedure: CL4176 C. elegans is a temperature sensitive strain. Worms are maintained at 15° C. and shifted to increased temperature to cause Aβ-induced paralysis in adults. This has been used as a C. elegans model of Alzheimer's disease.
A scheme of a paralysis assay with CL4176 worms is shown (FIG. 13A). Peptide treatment began on CL4176 embryos and continued throughout the experiment. After 2 days at 15° C., the temperature was increased to the restrictive temperature of 25° C. Worms were scored for survival and paralysis.
Example images of paralyzed and non-paralyzed worms are shown (FIG. 13C).

[5] = system: C. elegans wild-type (N2 strain); test: Paraquat (PQ)-induced oxidative stress survival; type: in vivo; conditions: five-day old N2 worms, 50 μg peptide 24 hours, 50 mM PQ
Procedure: Five-day old N2 worms were pretreated with 50 μg peptide for 24 hours and subjected to 50 mM PQ. The survival of the worms was monitored every hour under a microscope until the end of survival. […] The median survival value (50% survival) in CPPRAMC, CPAMC, and CP-SC (control) peptides corresponds to 9.6 h, 8.9 h and 5.9 h, respectively, as compared to vehicle control (5.5 h) (FIG. 14).

[6] = system: C. elegans (N2) worms; test: Juglone (JG)-induced oxidative stress survival; type: in vivo; conditions: N2 worms at day 5, 50 μg peptide 24 h, 50 μM JG
Procedure: N2 worms at day 5 pretreated for 24 h with 50 μg CPAMC or CP-SC (control) and subjected to 50 μM JG. Survival was checked every hour under a microscope until the end of survival. The median survival value in CPAMC and CP-SC (control) peptides corresponds to 7.3 h and 5.9 h, respectively, compared to vehicle control (4.9 h) (FIG. 15).

[7] = system: human red blood cells; test: Melittin-induced hemolysis of human RBC; type: cell-based; conditions: 2% human RBC, room temperature 30 min, OD 540 nm
Procedure: Hemolysis of human red blood cells with melittin was measured with varying concentrations of CPAMC (FIG. 3). To 0.3 mL of 2% human RBC (red blood cell) suspension was added 2 μM melittin and/or peptides taken in 0.7 mL of PBS. The tubes were incubated at room temperature for 30 min, centrifuged, and the OD of the supernatant was measured at 540 nm. PBS and PBS containing 0.1% TritonX-100 served as negative and positive control, respectively.
The protective effect of Myr-CPAMC peptide of human red blood cells (RBC) from melittin-induced hemolysis was also examined. To 0.3 mL of 2% human RBC suspension was added to melittin and/or peptide taken in 0.7 mL of PBS. The tubes were incubated at room temperature for 30 min, centrifuged (FIG. 5A) and the OD of the supernatant was measured at 540 nm. PBS and PBS containing 0.1% TritonX-100 served as negative and positive control, respectively.

[8] = system: ARPE-19 cells; test: Sodium iodate cytotoxicity, cell viability imaging; type: cell-based; conditions: 7.5 mM sodium iodate, 24 hours
Procedure: Sodium iodate is a chemical that induces oxidative stress and cell death. The ability of CPPRAMC peptide to block the cytotoxic action of sodium iodate was investigated. ARPE-19 cells cultured on a 96-well plate were treated with 7.5 mM sodium iodate and/or CPPRAMC peptide for 24 hours. At the end of the incubation, cell viability imaging was done using the EarlyTox cell integrity kit (Molecular Devices, Sunnyvale, Calif.) (FIG. 6A). The percentage of dead cells in each sample was calculated from the live/dead cell imaging data using the Softmax Pro software (FIG. 6B).
The ability of Myr-CPAMC peptide to block the cytotoxic action of sodium iodate was also investigated. Authenticated ARPE-19 cells cultured on a 96-well plate were treated with 7.5 mM sodium iodate and/or Myr-CPAMC peptide for 24 hours. At the end of the incubation, cell viability imaging was done using the EarlyTox cell integrity kit (Molecular Devices, Sunnyvale, Calif.) (FIG. 7A). The percentage of dead cells in each sample was calculated from the live/dead cell imaging data using the Softmax Pro software (FIG. 7B).

[9] = system: ARPE-19 cells; test: Peptide toxicity to cells, cell viability imaging; type: cell-based; conditions: increasing peptide concentrations
Procedure: Cell viability imaging was performed on cells with increasing concentrations of Myr-CPAMC, with fluorescent staining used to indicate dead cells (FIG. 9A).

[10] = biological target: Proteinase K (Parengyodontium album, UniProt P06873); test: Proteinase K incubation, HPLC profiles; type: in vitro ADME; conditions: 100 μg peptide, 10 μg Proteinase K, overnight
Sequence of Proteinase K (P06873 106-384, species assumed): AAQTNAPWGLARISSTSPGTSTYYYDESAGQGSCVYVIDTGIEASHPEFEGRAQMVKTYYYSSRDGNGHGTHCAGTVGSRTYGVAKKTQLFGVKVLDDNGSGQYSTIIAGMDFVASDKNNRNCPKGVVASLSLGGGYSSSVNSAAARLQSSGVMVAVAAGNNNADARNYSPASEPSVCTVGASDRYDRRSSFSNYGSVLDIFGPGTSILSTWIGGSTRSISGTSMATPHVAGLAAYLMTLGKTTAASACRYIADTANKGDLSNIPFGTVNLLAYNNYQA

[11] = system: ARPE-19 cells, hiPSC-NSC cultures, and NSC-derived neurons; test: Peptide entry into cells (fluorescent label); conditions: fluorescently labeled peptide
[12] = system: ARPE-19 cells, hiPSC-NSC cultures, and NSC-derived neurons

## CH3-VPTLKdlplknvedkfhrsfvesvk-NH2 [CP-cp, reference compound]
[1]
  Median Lifespan (Days ± SE): 13.23 ± 0.20 days
  Increase in median survival (%): 0%
[2]; 35° C., 50 μg peptide, vs control
  % increase in survival: 0%
[2]; 24 hours 50 μg peptide at 20° C., then 35° C.
  Median survival ± SE (hours at 35° C.): 7.4 ± 0.4 h
[3]
  Median survival ± SE (days at 20° C.): 7.0 ± 0.28 days
[3]; vs control
  % increase in survival: 2.0%
[4]; 25° C., vs control
  % increase in median survival: 0%
[4]; 2 days at 15° C., then 25° C.
  Median survival Hours ± SE: 44.7 ± 0.4 h
[5]
  median survival value (50% survival): 5.9 h
[6]
  median survival value: 5.9 h

## CH3-DFVIFLDVKHFSPEDLTVK-NH2 (Me-DFVIFLDVKHFSPEDLTVK-NH2; SMILES CC[C@H](C)[C@H](NC(=O)[C@@H](NC(=O)[C@H](Cc1ccccc1)NC(=O)[C@H](CC(=O)O)NC)C(C)C)C(=O)N[C@@H](Cc1ccccc1)C(=O)N[C@@H](CC(C)C)C(=O)N[C@@H](CC(=O)O)C(=O)N[C@H](C(=O)N[C@@H](CCCCN)C(=O)N[C@@H](Cc1c[nH]cn1)C(=O)N[C@@H](Cc1ccccc1)C(=O)N[C@@H](CO)C(=O)N1CCC[C@H]1C(=O)N[C@@H](CCC(=O)O)C(=O)N[C@@H](CC(=O)O)C(=O)N[C@@H](CC(C)C)C(=O)N[C@H](C(=O)N[C@H](C(=O)N[C@@H](CCCCN)C(N)=O)C(C)C)[C@@H](C)O)C(C)C) [MC-αA, Parent peptide from αA crystallin]
[1]
  Median Lifespan (Days ± SE): 16.10 ± 0.25 days
  Increase in median survival (%): 20* %

## CCCCCCCCCCCCCC(=O)N[C@@H](CCCCN)C(=O)N[C@@H](CC(C)C)C(=O)N[C@@H](Cc1ccccc1)C(=O)N[C@H](C(=O)N[C@H](C(=O)N[C@@H](Cc1ccccc1)C(=O)N[C@@H](CC(C)C)C(=O)N[C@H](C(=O)N[C@@H](Cc1c[nH]cn1)C(=O)N[C@@H](Cc1ccccc1)C(=O)N[C@@H](CO)C(=O)N1CCC[C@H]1C(=O)NCC(=O)N[C@@H](CCCNC(=N)N)C(=O)N[C@@H](CC(=O)O)C(=O)N[C@@H](CCC(=O)O)C(=O)N[C@@H](CC(=O)O)C(=O)N[C@@H](CCCCN)C(=O)N[C@@H](CC(=O)O)C(=O)N[C@@H](CCC(=O)O)C(=O)N[C@@H](CCCCN)C(N)=O)C(C)C)[C@@H](C)CC)C(C)C [Myr-CPAMC] (Myristoyl-KLFVIFLVHFSPGRDEDKDEK-NH2)
[7]
  hemolysis by melittin in presence of peptide: protects human red blood cells (RBC) from melittin-induced hemolysis
[8]
  percentage of dead cells with sodium iodate and peptide: protects ARPE-19 cells from sodium iodate-induced cytotoxicity
[9]
  toxicity of peptide to cells: non-toxic to cells

## CC[C@@H](C)[C@@H](NC(=O)[C@H](NC(=O)[C@@H](Cc1ccccc1)NC(=O)[C@@H](CC(C)C)NC)C(C)C)C(=O)N[C@H](Cc1ccccc1)C(=O)N[C@H](CC(C)C)C(=O)N[C@@H](C(=O)N[C@H](Cc1c[nH]cn1)C(=O)N[C@H](Cc1ccccc1)C(=O)N[C@H](CO)C(=O)N1CCC[C@@H]1C(=O)NCC(=O)N[C@H](CCCNC(=N)N)C(=O)N[C@H](CC(=O)O)C(=O)N[C@H](CCC(=O)O)C(=O)N[C@H](CC(=O)O)C(=O)N[C@H](CCCCN)C(=O)N[C@H](CC(=O)O)C(=O)N[C@H](CCC(=O)O)C(=O)N[C@H](CCCCN)C(N)=O)C(C)C [CPPRAMC, CH3-lfviflvhfspgrdedkdek-NH2] (H-[dNMeL][dF][dV][dI][dF][dL][dV][dH][dF][dS][dP]G[dR][dD][dE][dD][dK][dD][dE][dK]-NH2; N-terminus and C-terminus assumed)
[10]
  resistance to proteolytic cleavage: resistant to proteolytic cleavage
[11]
  entry of peptide into cells: readily penetrates neural cells

## Myristoyl-{K(TMR)}LFVIFLVHFSPGRDEDKDEK-NH2 (Myristoyl-K(TMR)LFVIFLVHFSPGRDEDKDEK-NH2) [Myr-(TMR)-CPAMC]
[9]
  toxicity of peptide to cells: not toxic to cells
[12]
  entry of peptide into cells: can enter into ARPE-19 cells at different concentrations
